# PMC4541410 (Scientific Reports, 2015)
# Assays:
# [1] = system: proteinase K; test: in vitro; conditions: proteinase K in PBS, pH 7.2
# Protocol: Chromatographic analyses were performed using an ODS-C8 column (5 μm, 100 mm × 2.0 mm ID) kept at ambient temperature. The mobile phase was composed of acetonitrile-water-formic acid in the ratio of 50:50:0.1 (v/v/v) at a flow rate of 0.3 mL/min. The sample injection volume was 10 μL. Acetonitrile was HPLC grade and other chemical reagents and solvents were analytical grade. A Thermo TSQ Quantum Discovery MAX triple-quadruple tandem mass spectrometer equipped with ESI source (San Jose, CA) and Surveyor LC pump were used for LC-MS analysis. Data acquisition and data processing were performed by using Xcalibur software and LCQuan 2.0 data analysis program (Thermo Finnigan), respectively. Optimized MS parameters were as below: 4800 V spray voltage, 40.0 psi sheath gas pressure, 1.0 psi auxiliary valve flow and 300 °C of capillary temperature. When running collision-induced dissociation (CID), the pressure was set to 1.5 mTorr.
# The peptides (10 μg/mL) were prepared in PBS pH 7.2 containing 20 ng/ml proteinase K. The resulting mixture were incubated at 37 °C in a water bath and taken out at different time intervals (0, 5, 15, 30, 60, 120 minutes), followed by quenching the samples with ethyl alcohol and quantitating the peptides by LC-MS analysis as described above.
# [2] = intravenous 1 mg/kg, male SD rats, n = 2; plasma by sandwich ELISA; PK Solver
# [3] = in vivo; conditions: male, Sprague-Dawley (SD), rat, plasma, iv, 1 mg/kg
# [4] = cited from earlier work
# [5] = subcutaneously twice daily at 90 mg per dose; cited from earlier work
substance,measurement,setting,value
enfuvirtide,"remaining at 2 h, 10 μg/mL",[1],29%
same,Cmax,[2],314.80 µg/mL
same,MRT,[3],2.27 h
same,half-life,[3],94.2 min
same,half-life in plasma,[4],about 2 h
same,injection-site reactions,[5],often causing serious injection-site reactions
